Key:
[1] = system: C57BL/6J strain male mice; assay: Locomotor activity during chronic treatment (days 1-8), D-amphetamine sensitization schedule with atipamezole pre-treatment; assay type: in vivo
Procedure: The effects of atipamezole on the locomotor hyperactivity induced by repeated administration of D-amphetamine were studied in male mice.
(§1) Experiments were performed with C57BL/6J strain male mice from Jackson Laboratories. Mice were transferred to laboratory at least 2 weeks prior to use. The mice were from 8 to 20 weeks of age at the beginning of an experiment. Groups of 10 mice were housed in standard polypropylene cages (38×22×15 cm) with free access to standard certified pelleted food (RM1 Maintenance Expanded SQC; Special Diet Services, Essex, UK) and water. Ambient temperature was 22±1 C°, and a 12:12 h light/dark cycle was maintained with lights on at 6 A.M. All experiments were carried out between 7 A.M. and 5 P.M. The animal care was performed in accordance with International Council for Laboratory Animal Science (ICLAS) guidelines.
(§2) D-Amphetamine sulphate (Sigma, St. Louis, Mo., U.S.A.) and atipamezole HCl (Orion Corporation, Orion Pharma, Turku, Finland) were dissolved in saline (0.9% NaCl) and administered subcutaneously (s.c.) in a 5 ml/kg volume.
(§3) The locomotor activity of the mice was measured in transparent standard polypropylene animal cages (38×22×15 cm) with transparent cover and aspen bedding on the floor. Test cages were placed middle of the photobeam frame system (Photobeam Activity System PAS, Cage Rack, San Diego Instruments, San Diego, Calif.). Computer control unit registered the interruptions of photobeams from 16 individual cages. Three different types of movements were monitored: 1) ambulations (large horizontal movements), 2) fine movements (smaller horizontal movements) and 3) rearings (vertical movements). Locomotor activity was measured at 5-min intervals for 2 h immediately after D-amphetamine or saline administrations.
D-amphetamine was administered subcutaneously (s.c.) at the dose of 2 mg/kg. Atipamezole was administered s.c. at the dose of 1 mg/kg 20 min before locomotor activity measurement.
In the chronic-treatment group mice were administrated during eight days to elicit provoked locomotor hyperactivity to D-amphetamine and the effect of the atipamezole to the locomotor activity. Mice groups in the chronic treatment schedule were saline, saline-amphetamine, amphetamine, atipamezole and atipamezole-amphetamine. A day before experiment, mice were habituated to the test environment. […] At days seven and eight, the produced locomotor hyperactivity and effect of a single exposure of D-amphetamine (saline-amphetamine-group) were analysed. […]
All data are presented as mean±SEM. […] Results were analysed separately, because data were collected in separate experiments with different study design. When significance (P<0.05) between treatment groups were found comparisons at each time point (date or min) were analyzed by using LSD post-hoc test.

[2] = system: C57BL/6J strain male mice; assay: Locomotor activity after different drug treatments at day 9 in the chronic treatment groups; assay type: in vivo
Procedure: as §1, §2, §3
At day nine, the effect of different atipamezole and amphetamine administrations to the locomotor activity on the chronic treatment groups were analysed. Used treatments were saline, 1 mg/kg atipamezole, 2 mg/kg D-amphetamine, 0.3 mg/kg atipamezole-2 mg/kg D-amphetamine and 1 mg/kg atipamezole-2 mg/kg D-amphetamine. Chronic treatment groups were saline-, atipamezole-, amphetamine- and atipamezole-amphetamine groups. Chronic groups were treated following schedule in Table 2.
All data are presented as mean±SEM. Statistical analysis were performed using SPSS 9.0 for Windows (SPSS, Chicago, Ill.). Separate repeated measures analyses of variance (ANOVA) were performed on each variable for each experiment grouped on time and treatment group. Results were analysed separately, because data were collected in separate experiments with different study design. When significance (P<0.05) between treatment groups were found comparisons at each time point (date or min) were analyzed by using LSD post-hoc test.

| SMILES | ambulatory activity compared to saline group ([1]; D-amphetamine 2 mg/kg s.c., six repeated administrations (days 1-4, 7, 8), 2-h counts, group amphetamine vs saline and saline-amphetamine at Day 8 P<0.001) | ambulatory sensitization during repeated administration ([2]; Day 9, chronic amphetamine group, D-amphetamine 2 mg/kg, P<0.001) | locomotor activity after D-amphetamine ([2]; Day 9, chronic saline group, D-amphetamine 2 mg/kg s.c., P<0.001 vs saline, not same level as amphetamine group (P<0.001)) | D-amphetamine-induced locomotion, atipamezole-amphetamine vs amphetamine group ([1]; atipamezole 1 mg/kg s.c. 20 min before D-amphetamine 2 mg/kg s.c. over the course of exposure, Day 2 P<0.05, Days 3-8 P<0.001) | locomotor activity, atipamezole pre-treatment before saline challenge vs saline group ([1]; atipamezole 1 mg/kg s.c. daily for six days, 20 min before saline, Day 8, P=0.43) | development and expression of sensitization (motor overactivity) ([1]; given chronically in combination with D-amphetamine, in mice (summary statement)) | D-amphetamine-induced locomotor hyperactivity in sensitized mice ([2]; Day 9, chronic amphetamine group, atipamezole 0.3 mg/kg 20 min before D-amphetamine 2 mg/kg, P=0.005) | D-amphetamine-induced locomotor hyperactivity in sensitized mice ([2]; Day 9, chronic amphetamine group, atipamezole 1 mg/kg 20 min before D-amphetamine 2 mg/kg, P<0.001) | locomotor activity before saline and D-amphetamine challenge after chronic atipamezole ([2]; Day 9, chronic atipamezole group (1 mg/kg days 1-8)) | D-amphetamine induced locomotion, group atipamezole-amphetamine vs amphetamine-amphetamine ([2]; Day 9, chronic atipamezole-amphetamine group given atipamezole 1 mg/kg 20 min before D-amphetamine 2 mg/kg, P<0.001) | locomotor activity with D-amphetamine only at Day 9 after chronic atipamezole-amphetamine, compared to amphetamine-amphetamine group (development of sensitization) ([2]; Day 9, chronic atipamezole-amphetamine group given only D-amphetamine 2 mg/kg, P-0.026) | locomotor activity, atipamezole pre-treatment before D-amphetamine challenge compared D-amphetamine alone ([2]; Day 9, chronic saline group, atipamezole 0.3 mg/kg 20 min before D-amphetamine 2 mg/kg, P=0.016) | locomotor activity, atipamezole pre-treatment before D-amphetamine challenge compared D-amphetamine alone ([2]; Day 9, chronic saline group, atipamezole 1 mg/kg 20 min before D-amphetamine 2 mg/kg, P=0.364) | total ambulatory activity counts, atipamezole pre-treatment alone ([2]; Day 9, chronic saline group, atipamezole 1 mg/kg 20 min before saline, P=0.81) |
| --- | --- | --- | --- | --- | --- | --- | --- | --- | --- | --- | --- | --- | --- | --- |
| C[C@H](N)Cc1ccccc1 [D-amphetamine] | progressive enhance in ambulatory activity | developed strong ambulatory sensitization | significantly enhanced locomotor activity | – | – | – | – | – | – | – | – | – | – | – |
| CCC1(c2c[nH]cn2)Cc2ccccc2C1 [Atipamezole, 4-(2-ethyl-2,3-dihydro-1H-inden-2-yl)-1H-imidazole] | – | – | – | decreased significantly D-amphetamine-induced locomotion | not statistical significant difference | reduced the development and expression of sensitization | clearly attenuated the D-amphetamine-induced locomotor hyperactivity | clearly attenuated the D-amphetamine-induced locomotor hyperactivity | elevation was not statistically significant | decreased significantly D-amphetamine induced locomotion | true reduction in the development of sensitization | amplified locomotor activity | had no effect | did not alter total ambulatory activity counts |
